From patent US7388004B2, “Acid-group-substituted diphenylazetidinones, process for their preparation, medicaments comprising these compounds, and their use” (Sanofi-Aventis Deutschland GmbH, priority 2002, dated 2008)

System: cholesterol absorption (uptake of 14C-cholesterol by the liver)
Assay: Cholesterol absorption test: uptake of 14C-cholesterol by the liver after peroral test meal
Assay type: in vivo, NMRI mice
Details: dose at which uptake of 14C-cholesterol by the liver was halved (50%) vs control group, mouse
From the text: Effect of the compounds of the invention on cholesterol absorption and 3H-taurocholic acid excretion using fecal excrement of mice, rats or hamsters
NMRI mice, Wistar rats, or Golden Syrian hamsters (in groups of n=4-6) were kept in metabolic cages, where they were fed with a standard diet (Altromin, Lage (Lippe)). The afternoon prior to the administration of the radioactive tracers (14C-cholesterol), the feed was removed and the animals were adapted to grates.
Additionally, the animals were labeled s.c. with 3H-TCA (taurocholic acid) (for example 1 μCi/mouse up to 5 μCi/rat) 24 hours prior to the peroral administration of the test meal (14C-cholesterol in Intralipid® 20, Pharmacia-Upjohn).
Cholesterol absorption test: 0.25 ml/mouse Intralipid®D 20 (Pharmacia-Upjohn) ((spiked with 0.25 μCi of 14C-cholesterol in 0.1 mg of cholesterol) was administered perorally by gavage.
Test substances were prepared separately in 0.5% methylcellulose (Sigma)/5% Solutol (BASF, Ludwigshafen) or a suitable vehicle.
The administration volume of the test substance was 0.5 ml/mouse. The test substance was administered immediately prior to the test meal (Intralipid labeled with 14C-cholesterol) (cholesterol absorption test).
The feces were collected over a period of 24 h. Fecal elimination of 14C-cholesterol and 3H-taurocholic acid (TCA) was determined after 24 hours.
The livers were removed and homogenized, and aliquots were incinerated in an oximate (Model 307, Packard) to determine the amount of 14C-cholesterol that had been taken up/absorbed.
The amount of-14C-cholesterol taken up by the liver was based on the administered dose. The ED50 values were interpolated from a dose-effect curve as the dose at which the uptake of 14C-cholesterol by the liver was halved (50%), based on a control group.

Row | Structure (SMILES) | ED50 (liver) [mg/mouse]
1 | O=C1C(CCC(O)c2ccc(F)cc2)C(c2ccc(OCCCCNCCCCCCOP(=O)(O)O)cc2)N1c1ccc(F)cc1 (stereo not shown) [IV, Phosphoric acid mono{6-[4-(4-{1-(4-fluorophenyl)-3-[3-(4-fluorofluorophenyl)-3-hydroxypropyl]-4-oxoazetidin-2-yl}phenoxy)butylamino]hexyl}ester] | 0.3
2 | O=C(O)CCC(=O)NCc1ccc(C2C(CCC(O)c3ccc(F)cc3)C(=O)N2c2ccc(F)cc2)cc1 (stereo not shown) [X, N-(4-{1-(4-Fluorophenyl)-3-[3-(4-fluorophenyl)-3-hydroxypropyl]-4-oxoazetidin-2-yl}benzyl)succinaminic acid] | <1.0
3 | COc1ccc(C2C(CCC(O)c3ccc(F)cc3)C(=O)N2c2ccc(OCCCCN(C)CCS(=O)(=O)O)cc2)cc1 (stereo not shown) [II, 2-[(4-{4-[3-[3-(4-Fluorophenyl)-3-hydroxypropyl]-2-(4-methoxyphenyl)-4-oxoazetidin-1-yl]phenoxy}butyl)methylamino]ethylsulfonic acid] | >0.1
4 | COc1ccc(C2C(CCC(O)c3ccc(F)cc3)C(=O)N2c2ccc(CNC(=O)CS(=O)(=O)O)cc2)cc1 (stereo not shown) [IX, {4-[3-[3-(4-Fluorophenyl)-3-hydroxypropyl]-2-(4-methoxyphenyl)-4-oxoazetidin-1-yl]benzylcarbamoyl}methanesulfonic acid] | <1.0
5 | COc1ccc(C2C(CCC(O)c3ccc(F)cc3)C(=O)N2c2ccc(CNCCCCS(=O)(=O)O)cc2)cc1 (stereo not shown) [I, 4-{4-[3-[3-(4-Fluorophenyl)-3-hydroxypropyl]-2-(4-methoxyphenyl)-4-oxoazetidin-1-yl]benzylamino}butane-1-sulfonic acid] | 1.0
6 | O=C(CS(=O)(=O)O)NCc1ccc(C2C(CCC(O)c3ccc(F)cc3)C(=O)N2c2ccc(F)cc2)cc1 (stereo not shown) [VIII, (4-{1-(4-Fluorophenyl)-3-[3-(4-fluorophenyl)-3-hydroxypropyl]-4-oxoazetidin-2-yl}benzylcarbamoyl)methanesulfonic acid] | 0.3
7 | COc1ccc(C2C(CCC(O)c3ccc(F)cc3)C(=O)N2c2ccc(CNC(=O)CCCCCCCCCCC(=O)O)cc2)cc1 (stereo not shown) [XIII, 11-{4-[3-[3-(4-Fluorophenyl)-3-hydroxypropyl]-2-(4-methoxyphenyl)-4-oxoazetidin-1-yl]benzylcarbamoyl}undecanoic acid] | <0.1
